From US11254665B2, “Crystalline sulfamide compound” (CHIA TAI TIANQING PHARMACEUTICAL GROUP CO., LTD., priority 2017, dated 2022)

Experiments:
Assay type in all cases: physicochemical
[1] = Stability influencing factors: light test
Method: (§1) In accordance with “Stability Testing of New Drug Substances and Products” in ICH Q1A and “Guidelines for the Stability Testing of Drug Substances and Preparations” in Pharmacopoeia of China, fourth part, 2015 edition, 9001, the stability influencing factors were tested for the crystal of the monohydrate formula II, including high temperature, high humidity and light tests.

[2] = Stability influencing factors: high temperature test
Method: as §1
(§2) In accordance with “Stability Testing of New Drug Substances and Products” in ICH Q1A and “Guidelines for the Stability Testing of Drug Substances and Preparations” in Pharmacopoeia of China, fourth part, 2015 edition, 9001, the stability influencing factors were tested for the crystal of the compound of formula I, including high temperature and high humidity tests.
(§3) In accordance with “Stability Testing of New Drug Substances and Products” in ICH Q1A and “Guidelines for the Stability Testing of Drug Substances and Preparations” in Pharmacopoeia of China, fourth part, 2015 edition, 9001, the stability influencing factors were tested for the amorphous form of the compound of formula I, including high temperature and high humidity tests.

[3] = Stability influencing factors: high humidity test
Method: as §1, §2, §3

N#Cc1ccnc(N2[C@H](C(=O)N(c3cccc(F)c3)[C@H](C(=O)NC3CC(F)(F)C3)c3ccccc3Cl)CCS2(=O)=O)c1 [crystal of the monohydrate of formula II]
Appearance ([1]; 0 day): White
Enantiomers (%) ([1]; 0 day): 0.01%
Total impurities (%) ([1]; 0 day): 0.38%
Total of diastereoisomers (%) ([1]; 0 day): 0.05%
Water (%) ([1]; 0 day): 3.10%
Appearance ([1]; Lighting, 5 day): White
Enantiomers (%) ([1]; Lighting, 5 day): 0.01%
Total impurities (%) ([1]; Lighting, 5 day): 0.56%
Total of diastereoisomers (%) ([1]; Lighting, 5 day): 0.05%
Water (%) ([1]; Lighting, 5 day): 2.72%
Appearance ([1]; Lighting, 10 day): White
Enantiomers (%) ([1]; Lighting, 10 day): 0.01%
Total impurities (%) ([1]; Lighting, 10 day): 0.63%
Total of diastereoisomers (%) ([1]; Lighting, 10 day): 0.05%
Water (%) ([1]; Lighting, 10 day): 2.47%
Appearance ([1]; shading, 5 day): White
Enantiomers (%) ([1]; shading, 5 day): 0.01%
Total impurities (%) ([1]; shading, 5 day): 0.49%
Total of diastereoisomers (%) ([1]; shading, 5 day): 0.05%
Water (%) ([1]; shading, 5 day): 2.73%
Appearance ([1]; shading, 10 day): White
Enantiomers (%) ([1]; shading, 10 day): 0.01%
Total impurities (%) ([1]; shading, 10 day): 0.47%
Total of diastereoisomers (%) ([1]; shading, 10 day): 0.05%
Water (%) ([1]; shading, 10 day): 2.55%
Appearance ([2]; 0 day): White
Enantiomers (%) ([2]; 0 day): 0.01%
Total impurities (%) ([2]; 0 day): 0.38%
Total of diastereoisomers (%) ([2]; 0 day): 0.05%
Water (%) ([2]; 0 day): 3.10%
Appearance ([2]; 40° C., 5 day): White
Enantiomers (%) ([2]; 40° C., 5 day): 0.01%
Total impurities (%) ([2]; 40° C., 5 day): 0.45%
Total of diastereoisomers (%) ([2]; 40° C., 5 day): 0.05%
Water (%) ([2]; 40° C., 5 day): 2.69%
Appearance ([2]; 40° C., 10 day): White
Enantiomers (%) ([2]; 40° C., 10 day): 0.01%
Total impurities (%) ([2]; 40° C., 10 day): 0.47%
Total of diastereoisomers (%) ([2]; 40° C., 10 day): 0.05%
Water (%) ([2]; 40° C., 10 day): 2.45%
Appearance ([2]; 60° C., 5 day): White
Total impurities (%) ([2]; 60° C., 5 day): 0.48%
Total of diastereoisomers (%) ([2]; 60° C., 5 day): 0.05%
Water (%) ([2]; 60° C., 5 day): 2.67%
Appearance ([2]; 60° C., 10 day): White
Enantiomers (%) ([2]; 60° C., 10 day): 0.01%
Total impurities (%) ([2]; 60° C., 10 day): 0.47%
Total of diastereoisomers (%) ([2]; 60° C., 10 day): 0.05%
Water (%) ([2]; 60° C., 10 day): 2.51%
Appearance ([3]; 0 day): White
Enantiomers (%) ([3]; 0 day): 0.01%
Total impurities (%) ([3]; 0 day): 0.38%
Total of diastereoisomers (%) ([3]; 0 day): 0.05%
Water (%) ([3]; 0 day): 3.10%
Appearance ([3]; 75% RH, 5 day): White
Enantiomers (%) ([3]; 75% RH, 5 day): 0.01%
Total impurities (%) ([3]; 75% RH, 5 day): 0.44%
Total of diastereoisomers (%) ([3]; 75% RH, 5 day): 0.05%
Water (%) ([3]; 75% RH, 5 day): 2.69%
Appearance ([3]; 75% RH, 10 day): White
Enantiomers (%) ([3]; 75% RH, 10 day): 0.01%
Total impurities (%) ([3]; 75% RH, 10 day): 0.50%
Total of diastereoisomers (%) ([3]; 75% RH, 10 day): 0.05%
Water (%) ([3]; 75% RH, 10 day): 2.53%
Appearance ([3]; 92.5% RH, 5 day): White
Enantiomers (%) ([3]; 92.5% RH, 5 day): 0.01%
Total impurities (%) ([3]; 92.5% RH, 5 day): 0.49%
Total of diastereoisomers (%) ([3]; 92.5% RH, 5 day): 0.04%
Water (%) ([3]; 92.5% RH, 5 day): 2.72%
Appearance ([3]; 92.5% RH, 10 day): White
Enantiomers (%) ([3]; 92.5% RH, 10 day): 0.01%
Total impurities (%) ([3]; 92.5% RH, 10 day): 0.49%
Total of diastereoisomers (%) ([3]; 92.5% RH, 10 day): 0.05%
Water (%) ([3]; 92.5% RH, 10 day): 2.42%

N#Cc1ccnc(N2[C@H](C(=O)N(c3cccc(F)c3)[C@H](C(=O)NC3CC(F)(F)C3)c3ccccc3Cl)CCS2(=O)=O)c1 [crystal of the compound of formula I]
Appearance ([2]; 0 day): White
Total impurities (%) ([2]; 0 day): 0.39%
Water (%) ([2]; 0 day): 0.45%
Appearance ([2]; 40° C., 5 day): White
Total impurities (%) ([2]; 40° C., 5 day): 0.42%
Water (%) ([2]; 40° C., 5 day): 0.85%
Appearance ([2]; 40° C., 12 day): White
Total impurities (%) ([2]; 40° C., 12 day): 0.37%
Water (%) ([2]; 40° C., 12 day): 0.85%
Appearance ([2]; 60° C., 5 day): White
Total impurities (%) ([2]; 60° C., 5 day): 0.63%
Water (%) ([2]; 60° C., 5 day): 0.59%
Appearance ([2]; 60° C., 12 day): White
Total impurities (%) ([2]; 60° C., 12 day): 0.54%
Water (%) ([2]; 60° C., 12 day): 0.73%
Appearance ([3]; 0 day): White
Total impurities (%) ([3]; 0 day): 0.39%
Water (%) ([3]; 0 day): 0.45%
Appearance ([3]; 75% RH, 5 day): White
Total impurities (%) ([3]; 75% RH, 5 day): 0.43%
Water (%) ([3]; 75% RH, 5 day): 0.94%
Appearance ([3]; 75% RH, 12 day): White
Total impurities (%) ([3]; 75% RH, 12 day): 0.37%
Water (%) ([3]; 75% RH, 12 day): 1.16%
Appearance ([3]; 92.5% RH, 5 day): White
Total impurities (%) ([3]; 92.5% RH, 5 day): 0.47%
Water (%) ([3]; 92.5% RH, 5 day): 1.58%
Appearance ([3]; 92.5% RH, 12 day): White
Total impurities (%) ([3]; 92.5% RH, 12 day): 0.37%
Water (%) ([3]; 92.5% RH, 12 day): 1.75%

N#Cc1ccnc(N2[C@H](C(=O)N(c3cccc(F)c3)[C@H](C(=O)NC3CC(F)(F)C3)c3ccccc3Cl)CCS2(=O)=O)c1 [amorphous form of the compound of formula I]
Appearance ([2]; 0 day): White
Total impurities (%) ([2]; 0 day): 0.28%
Water (%) ([2]; 0 day): 1.4%
Appearance ([2]; 40° C., 5 day): White
Total impurities (%) ([2]; 40° C., 5 day): 0.25%
Water (%) ([2]; 40° C., 5 day): 1.1%
Appearance ([2]; 40° C., 10 day): White
Total impurities (%) ([2]; 40° C., 10 day): 0.28%
Water (%) ([2]; 40° C., 10 day): 1.0%
Appearance ([2]; 40° C., 30 day): White
Total impurities (%) ([2]; 40° C., 30 day): 0.26%
Water (%) ([2]; 40° C., 30 day): 0.8%
Appearance ([2]; 60° C., 5 day): White
Total impurities (%) ([2]; 60° C., 5 day): 0.31%
Water (%) ([2]; 60° C., 5 day): 0.8%
Appearance ([2]; 60° C., 10 day): White
Total impurities (%) ([2]; 60° C., 10 day): 0.27%
Water (%) ([2]; 60° C., 10 day): 0.6%
Appearance ([2]; 60° C., 30 day): White
Total impurities (%) ([2]; 60° C., 30 day): 0.28%
Water (%) ([2]; 60° C., 30 day): 0.5%
Appearance ([3]; 0 day): White
Total impurities (%) ([3]; 0 day): 0.28%
Water (%) ([3]; 0 day): 1.4%
Appearance ([3]; 75% RH, 5 day): White
Total impurities (%) ([3]; 75% RH, 5 day): 0.30%
Water (%) ([3]; 75% RH, 5 day): 1.7%
Appearance ([3]; 75% RH, 10 day): White
Total impurities (%) ([3]; 75% RH, 10 day): 0.30%
Water (%) ([3]; 75% RH, 10 day): 1.8%
Appearance ([3]; 75% RH, 30 day): White
Total impurities (%) ([3]; 75% RH, 30 day): 0.27%
Water (%) ([3]; 75% RH, 30 day): 1.8%
Appearance ([3]; 92.5% RH, 5 day): White
Total impurities (%) ([3]; 92.5% RH, 5 day): 0.30%
Water (%) ([3]; 92.5% RH, 5 day): 2.1%
Appearance ([3]; 92.5% RH, 10 day): White
Total impurities (%) ([3]; 92.5% RH, 10 day): 0.29%
Water (%) ([3]; 92.5% RH, 10 day): 2.3%
Appearance ([3]; 92.5% RH, 30 day): White
Total impurities (%) ([3]; 92.5% RH, 30 day): 0.26%
Water (%) ([3]; 92.5% RH, 30 day): 2.4%
